According to US12433865B2, “Compositions comprising PGI2-receptor agonists and processes for the preparation thereof” (Arena Pharmaceuticals, Inc., priority 2018, dated 2025):

Test: Release (dissolution) profile of capsules, USP Apparatus 2 (paddle)
Format: physicochemical
Description: USP Apparatus 2 (Paddle Apparatus) is described, for example, in the United States Pharmacopeial Convention, Feb. 1, 2012, Chapter <711> (“Dissolution”), incorporated by reference herein in its entirety. See http://www.usp.org/sites/default/files/usp_pdf/EN/USPNF/revisions/m99470-gc_711.pdf. The assembly from Apparatus 1 is used, except that a paddle formed from a blade and a shaft is used as the stirring element. The shaft is positioned so that its axis is not more than 2 mm from the vertical axis of the vessel at any point and rotates smoothly without significant wobble that could affect the results. The vertical center line of the blade passes through the axis of the shaft so that the bottom of the blade is flush with the bottom of the shaft. A distance of 25±2 mm between the bottom of the blade and the inside bottom of the vessel is maintained during the test. The metallic or suitably inert, rigid blade and shaft comprise a single entity. A suitable two-part detachable design may be used provided the assembly remains firmly engaged during the test. The paddle blade and shaft may be coated with a suitable coating so as to make them inert. The dosage unit is allowed to sink to the bottom of the vessel before rotation of the blade is started. A small, loose piece of nonreactive material, such as not more than a few turns of wire helix, may be attached to dosage units that would otherwise float. Other validated sinker devices may be used.
Unless otherwise specified, the release profiles for capsules were measured using USP Apparatus 2 (paddle).
All release profiles disclosed in Tables 3c-3p were measured with USP Apparatus 2 (paddle) at 50 rpm in 500 mL of aqueous sodium phosphate at a concentration of 0.05 M (pH=6.8). The values in a given table relate to capsules obtained from the same batch. Values shown represent mean values over a number of dissolution tests (“n” in each table) in each case.

mean value (n = 4) of % of Compound 1 released (Table 3p: size 4 capsule, 0.5 mg Compound 1, Poloxamer 188:food grade GMS 30:70, 735 min): 96.1%
mean value (n = 4) of % of Compound 1 released (Table 3q: size 4 capsule, 0.5 mg Compound 1, Poloxamer 188:food grade GMS 30:70, 30 min): 6.2%
mean value (n = 4) of % of Compound 1 released (Table 3q: size 4 capsule, 0.5 mg Compound 1, Poloxamer 188:food grade GMS 30:70, 60 min): 13.7%
mean value (n = 4) of % of Compound 1 released (Table 3q: size 4 capsule, 0.5 mg Compound 1, Poloxamer 188:food grade GMS 30:70, 120 min): 27.3%
mean value (n = 4) of % of Compound 1 released (Table 3q: size 4 capsule, 0.5 mg Compound 1, Poloxamer 188:food grade GMS 30:70, 180 min): 40.3%
mean value (n = 4) of % of Compound 1 released (Table 3q: size 4 capsule, 0.5 mg Compound 1, Poloxamer 188:food grade GMS 30:70, 240 min): 52.5%
mean value (n = 4) of % of Compound 1 released (Table 3q: size 4 capsule, 0.5 mg Compound 1, Poloxamer 188:food grade GMS 30:70, 360 min): 74.2%
mean value (n = 4) of % of Compound 1 released (Table 3q: size 4 capsule, 0.5 mg Compound 1, Poloxamer 188:food grade GMS 30:70, 480 min): 85.5%
mean value (n = 4) of % of Compound 1 released (Table 3q: size 4 capsule, 0.5 mg Compound 1, Poloxamer 188:food grade GMS 30:70, 600 min): 91.5%
mean value (n = 4) of % of Compound 1 released (Table 3q: size 4 capsule, 0.5 mg Compound 1, Poloxamer 188:food grade GMS 30:70, 720 min): 93.4%
mean value (n = 4) of % of Compound 1 released (Table 3q: size 4 capsule, 0.5 mg Compound 1, Poloxamer 188:food grade GMS 30:70, 735 min): 94.5%
mean value (n = 6) of % of Compound 1 released (Table 3r: size 4 capsule, 0.03 mg Compound 1, Poloxamer 188:food grade GMS 30:70, 60 min): 11%
mean value (n = 6) of % of Compound 1 released (Table 3r: size 4 capsule, 0.03 mg Compound 1, Poloxamer 188:food grade GMS 30:70, 120 min): 23%
mean value (n = 6) of % of Compound 1 released (Table 3r: size 4 capsule, 0.03 mg Compound 1, Poloxamer 188:food grade GMS 30:70, 180 min): 33%
mean value (n = 6) of % of Compound 1 released (Table 3r: size 4 capsule, 0.03 mg Compound 1, Poloxamer 188:food grade GMS 30:70, 240 min): 43%
mean value (n = 6) of % of Compound 1 released (Table 3r: size 4 capsule, 0.03 mg Compound 1, Poloxamer 188:food grade GMS 30:70, 360 min): 62%
mean value (n = 6) of % of Compound 1 released (Table 3r: size 4 capsule, 0.03 mg Compound 1, Poloxamer 188:food grade GMS 30:70, 480 min): 77%
mean value (n = 6) of % of Compound 1 released (Table 3r: size 4 capsule, 0.03 mg Compound 1, Poloxamer 188:food grade GMS 30:70, 600 min): 87%
mean value (n = 6) of % of Compound 1 released (Table 3r: size 4 capsule, 0.03 mg Compound 1, Poloxamer 188:food grade GMS 30:70, 720 min): 91%
mean value (n = 6) of % of Compound 1 released (Table 3r: size 4 capsule, 0.03 mg Compound 1, Poloxamer 188:food grade GMS 30:70, 840 min): 95%
mean value (n = 6) of % of Compound 1 released (Table 3s-1: Storage time = 0, size 4 capsule, 0.03 mg Compound 1, Poloxamer 188:food grade GMS 30:70, 60 min): 16.7%
mean value (n = 6) of % of Compound 1 released (Table 3s-1: Storage time = 0, size 4 capsule, 0.03 mg Compound 1, Poloxamer 188:food grade GMS 30:70, 120 min): 27.5%
mean value (n = 6) of % of Compound 1 released (Table 3s-1: Storage time = 0, size 4 capsule, 0.03 mg Compound 1, Poloxamer 188:food grade GMS 30:70, 180 min): 38.3%
mean value (n = 6) of % of Compound 1 released (Table 3s-1: Storage time = 0, size 4 capsule, 0.03 mg Compound 1, Poloxamer 188:food grade GMS 30:70, 240 min): 50.3%
mean value (n = 6) of % of Compound 1 released (Table 3s-1: Storage time = 0, size 4 capsule, 0.03 mg Compound 1, Poloxamer 188:food grade GMS 30:70, 360 min): 72.3%
mean value (n = 6) of % of Compound 1 released (Table 3s-1: Storage time = 0, size 4 capsule, 0.03 mg Compound 1, Poloxamer 188:food grade GMS 30:70, 480 min): 88.7%
mean value (n = 6) of % of Compound 1 released (Table 3s-1: Storage time = 0, size 4 capsule, 0.03 mg Compound 1, Poloxamer 188:food grade GMS 30:70, 600 min): 96.0%
mean value (n = 6) of % of Compound 1 released (Table 3s-2: Storage time = 2 weeks, size 4 capsule, 0.03 mg Compound 1, Poloxamer 188:food grade GMS 30:70, 60 min): 16.0%
mean value (n = 6) of % of Compound 1 released (Table 3s-2: Storage time = 2 weeks, size 4 capsule, 0.03 mg Compound 1, Poloxamer 188:food grade GMS 30:70, 120 min): 27.7%
mean value (n = 6) of % of Compound 1 released (Table 3s-2: Storage time = 2 weeks, size 4 capsule, 0.03 mg Compound 1, Poloxamer 188:food grade GMS 30:70, 180 min): 39.7%
mean value (n = 6) of % of Compound 1 released (Table 3s-2: Storage time = 2 weeks, size 4 capsule, 0.03 mg Compound 1, Poloxamer 188:food grade GMS 30:70, 240 min): 52.2%
mean value (n = 6) of % of Compound 1 released (Table 3s-2: Storage time = 2 weeks, size 4 capsule, 0.03 mg Compound 1, Poloxamer 188:food grade GMS 30:70, 360 min): 74.6%
mean value (n = 6) of % of Compound 1 released (Table 3s-2: Storage time = 2 weeks, size 4 capsule, 0.03 mg Compound 1, Poloxamer 188:food grade GMS 30:70, 480 min): 89.4%
mean value (n = 6) of % of Compound 1 released (Table 3s-2: Storage time = 2 weeks, size 4 capsule, 0.03 mg Compound 1, Poloxamer 188:food grade GMS 30:70, 600 min): 96.7%
mean value (n = 6) of % of Compound 1 released (Table 3h: size 4 capsule, 0.03 mg Compound 1, Poloxamer 188:food grade GMS 50:50, 60 min): 17.9%
mean value (n = 6) of % of Compound 1 released (Table 3h: size 4 capsule, 0.03 mg Compound 1, Poloxamer 188:food grade GMS 50:50, 120 min): 35.9%
mean value (n = 6) of % of Compound 1 released (Table 3h: size 4 capsule, 0.03 mg Compound 1, Poloxamer 188:food grade GMS 50:50, 180 min): 51.7%
mean value (n = 6) of % of Compound 1 released (Table 3h: size 4 capsule, 0.03 mg Compound 1, Poloxamer 188:food grade GMS 50:50, 240 min): 67.9%
mean value (n = 6) of % of Compound 1 released (Table 3h: size 4 capsule, 0.03 mg Compound 1, Poloxamer 188:food grade GMS 50:50, 300 min): 83.6%
mean value (n = 6) of % of Compound 1 released (Table 3h: size 4 capsule, 0.03 mg Compound 1, Poloxamer 188:food grade GMS 50:50, 360 min): 92.3%
mean value (n = 6) of % of Compound 1 released (Table 3h: size 4 capsule, 0.03 mg Compound 1, Poloxamer 188:food grade GMS 50:50, 480 min): 98.1%
mean value (n = 4) of % of Compound 1 released (Table 3d: size 4 capsule, 0.5 mg Compound 1, Poloxamer 188:food grade GMS 70:30, 30 min): 13.8%
mean value (n = 4) of % of Compound 1 released (Table 3d: size 4 capsule, 0.5 mg Compound 1, Poloxamer 188:food grade GMS 70:30, 60 min): 60.2%
mean value (n = 4) of % of Compound 1 released (Table 3d: size 4 capsule, 0.5 mg Compound 1, Poloxamer 188:food grade GMS 70:30, 120 min): 92.1%
release rate relative to immediate release composition (capsule, Gelucire 50/13:Kolliphor RH40 50:50 (FIG. 3)): substantially reduced
change of release rate after storage (capsule, Gelucire 50/13:Kolliphor RH40 75:25, storage at 40° C. and 75% RH over time (FIG. 4)): significantly increased
release rate, 90:10 ratio relative to 80:20 ratio (capsule, Gelucire 50/13:Kolliphor RH40 90:10 vs 80:20 (FIG. 3)): further reduced
effect of curing in stabilizing the release profile (research grade GMS (lower monoester content) instead of food grade GMS): not as effective
Structure (SMILES): O=C(O)COC[C@H]1CC[C@H](COC(=O)N(c2ccccc2)c2ccc(Cl)cc2)CC1 [Compound 1, 2-(((1r,4r)-4-(((4-chlorophenyl)(phenyl)carbamoyloxy)methyl)cyclohexyl)methoxy)acetic acid]
